Test results from patent publication US9382228B2 (priority 2013, dated 2016).

Columns and labels:
[1] = tested on: osteoclast precursors; assay: cells; type: cell-based; conditions: read-out: Osteoclast assay
[2] = tested on: M-NFS-60 cells; assay: cells; conditions: 67 h, read-out: M-NFS-60 cell proliferation
Protocol: M-NFS-6 Cell Proliferation Assay
A serial dilution of test compound was dispensed into a 384-well black clear bottom plate (Corning, Corning, N.Y.). Two thousand five hundred cells were added per well in 50 μL complete growth medium. […] IC50 values were calculated from a series of percent inhibition values determined at a range of inhibitor concentrations using software routines as implemented in the GraphPad Prism software package.

[3] = molecular target: T1, unphosphorylated c-FMS kinase (uFMS, Seq. ID no. 1) (Homo sapiens, UniProt P07333); assay: biochemical; conditions: uFMS, enzymatic assay, ATP 500 μM
T1 sequence (P07333 538-972): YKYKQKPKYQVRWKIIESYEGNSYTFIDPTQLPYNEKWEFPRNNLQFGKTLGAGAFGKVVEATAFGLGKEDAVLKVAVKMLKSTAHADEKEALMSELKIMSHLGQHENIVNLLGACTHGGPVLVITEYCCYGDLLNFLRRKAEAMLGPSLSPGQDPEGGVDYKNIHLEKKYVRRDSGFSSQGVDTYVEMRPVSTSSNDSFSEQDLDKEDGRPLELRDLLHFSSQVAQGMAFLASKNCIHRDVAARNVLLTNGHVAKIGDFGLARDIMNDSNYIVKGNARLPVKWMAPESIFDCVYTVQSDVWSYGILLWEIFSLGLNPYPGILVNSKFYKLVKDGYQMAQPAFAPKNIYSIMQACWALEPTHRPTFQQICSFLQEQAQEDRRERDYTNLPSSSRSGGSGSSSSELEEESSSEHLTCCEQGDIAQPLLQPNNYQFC

[4] = molecular target: unphosphorylated c-KIT kinase (uKIT, Seq. ID no. 2) (Homo sapiens, UniProt P10721); assay: biochemical; conditions: uKIT, enzymatic assay, ATP 2000 μM
Protocol: uKit kinase (Seq. ID No. 2) Assay
In this assay, the oxidation of NADH (thus the decrease at A340 nm) was continuously monitored spectrophometrically. […] The inhibition reaction was started by mixing serial diluted test compound with the above reaction mixture. The absorption at 340 nm was monitored continuously for 4 hours at 30° C. on Synergy 2 plate reader (BioTech).

[5] = molecular target: unphosphorylated PDGFRβ kinase (uPDGFRβ, Seq. ID No. 3) (Homo sapiens, UniProt P09619); assay: biochemical; conditions: uPDGFRb, enzymatic assay, ATP 500 μM
Chain of unphosphorylated PDGFRβ kinase (uPDGFRβ, Seq. ID No. 3) (P09619 557-1106): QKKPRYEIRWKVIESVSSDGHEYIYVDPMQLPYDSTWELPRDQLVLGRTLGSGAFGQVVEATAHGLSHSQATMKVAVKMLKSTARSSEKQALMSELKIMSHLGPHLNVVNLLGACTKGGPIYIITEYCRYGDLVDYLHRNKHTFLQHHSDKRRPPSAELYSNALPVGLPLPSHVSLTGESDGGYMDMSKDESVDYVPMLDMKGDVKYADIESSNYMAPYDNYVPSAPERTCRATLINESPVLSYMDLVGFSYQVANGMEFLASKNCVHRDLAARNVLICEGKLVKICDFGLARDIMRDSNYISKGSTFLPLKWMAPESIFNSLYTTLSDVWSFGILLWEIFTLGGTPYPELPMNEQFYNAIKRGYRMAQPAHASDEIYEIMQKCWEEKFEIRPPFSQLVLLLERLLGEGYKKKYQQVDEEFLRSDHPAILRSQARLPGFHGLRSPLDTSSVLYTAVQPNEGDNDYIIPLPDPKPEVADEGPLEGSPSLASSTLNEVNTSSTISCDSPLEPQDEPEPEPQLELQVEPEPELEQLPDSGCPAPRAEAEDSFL
Protocol: Unphosphorylated PDGFRβ (uPDGFRβ) Kinase (Seq. ID No. 3) Assay
In this assay, the oxidation of NADH (thus the decrease at A340 nm) was continuously monitored spectrophometrically. […] The inhibition reaction was started by mixing serial diluted test compound with the above reaction mixture. The absorption at 340 nm was monitored continuously for 4 h at 30° C. on a Polarstar Optima or Synergy 2 plate reader. The reaction rate was calculated using the 1.5 to 2.5 h time frame. Percent inhibition was obtained by comparison of reaction rate with that of a control (i.e. with no test compound). IC50 values were calculated from a series of percent inhibition values determined at a range of inhibitor concentrations using software routines as implemented in the GraphPad Prism software package.

Chain of unphosphorylated c-KIT kinase (uKIT, Seq. ID no. 2) (P10721 with tags, fused parts or gaps): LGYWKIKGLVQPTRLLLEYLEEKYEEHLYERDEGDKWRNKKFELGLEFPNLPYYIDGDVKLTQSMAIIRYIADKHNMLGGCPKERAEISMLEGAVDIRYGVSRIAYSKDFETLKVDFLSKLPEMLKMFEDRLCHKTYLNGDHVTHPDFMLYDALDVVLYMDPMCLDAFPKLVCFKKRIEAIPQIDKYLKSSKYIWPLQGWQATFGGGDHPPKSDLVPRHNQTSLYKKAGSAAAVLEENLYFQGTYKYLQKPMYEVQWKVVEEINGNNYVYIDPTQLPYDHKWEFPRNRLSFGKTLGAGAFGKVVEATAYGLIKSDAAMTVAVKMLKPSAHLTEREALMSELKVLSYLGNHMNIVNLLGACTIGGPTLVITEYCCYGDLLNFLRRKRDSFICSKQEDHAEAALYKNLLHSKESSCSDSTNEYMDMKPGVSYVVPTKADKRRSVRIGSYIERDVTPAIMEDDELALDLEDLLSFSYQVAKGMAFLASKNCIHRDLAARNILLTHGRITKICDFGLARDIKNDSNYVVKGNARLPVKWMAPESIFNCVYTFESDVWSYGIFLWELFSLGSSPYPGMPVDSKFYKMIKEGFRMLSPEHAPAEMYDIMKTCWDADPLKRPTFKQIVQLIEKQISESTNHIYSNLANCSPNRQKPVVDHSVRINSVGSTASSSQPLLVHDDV

Compound	IC50 [1] [nM]	IC50 [2] [nM]	IC50 [3] [nM]	IC50 [4] [nM]	IC50 [5] [nM]
Cc1nc(NC(=O)NC(=O)C2(C(F)(F)F)CCC2)ccc1Oc1ccnc(-c2cnn(C)c2)c1 [Example 102, N-((6-methyl-5-((2-(1-methyl-1H-pyrazol-4-yl)pyridin-4-yl)oxy)pyridin-2-yl)carbamoyl)-1-(trifluoromethyl)cyclobutanecarboxamide]	10 to 100	< 10	< 10	100 to 1000	100 to 1000
CNc1ccc(-c2cc(Oc3ccc(NC(=O)NC(=O)C(C)(C)C)nc3)ccn2)cn1 [Example 105, N-((5-((6′-(methylamino)-[2,3′-bipyridin]-4-yl)oxy)pyridin-2-yl)carbamoyl)pivalamide]	< 10	10 to 100	< 10	100 to 1000	100 to 1000
CC(C)(C)C(=O)NC(=O)Nc1ccc(Oc2ccnc(-c3ccc(N)nc3)c2)cn1 [Example 106, N-((5-((6′-amino-[2,3′-bipyridin]-4-yl)oxy)pyridin-2-yl)carbamoyl)pivalamide]	< 10	< 10	< 10	100 to 1000	> 1000
CCC(=O)NC(=O)Nc1ccc(Oc2ccnc(-c3ccc(C)nc3)c2)cn1 [Example 108, N-((5-((6′-methyl-[2,3′-bipyridin]-4-yl)oxy)pyridin-2-yl)carbamoyl)propionamide]	10 to 100	> 1000	10 to 100	> 1000	> 1000
Cc1nc(NC(=O)NC(=O)C(C)(C)C)ccc1Oc1ccnc(-c2ccc(C3CCN(C)CC3)cc2)c1 [Example 109, N-((6-methyl-5-((2-(4-(1-methylpiperidin-4-yl)phenyl)pyridin-4-yl)oxy)pyridin-2-yl)carbamoyl)pivalamide]	10 to 100	< 10	< 10	100 to 1000	100 to 1000
COC(C)(C)C(=O)NC(=O)Nc1ccc(Oc2ccnc(-c3ccc(C#N)nc3)c2)c(C)n1 [Example 110, N-((5-((6′-cyano-[2,3′-bipyridin]-4-yl)oxy)-6-methylpyridin-2-yl)carbamoyl)-2-methoxy-2-methylpropanamide]	10 to 100	100 to 1000	10 to 100	> 1000	> 1000
Cc1cc(NC(=O)NC(=O)C(C)(C)C)nc(C)c1Oc1ccnc(-c2cnn(C)c2)c1 [Example 116, N-((4,6-dimethyl-5-((2-(1-methyl-1H-pyrazol-4-yl)pyridin-4-yl)oxy)pyridin-2-yl)carbamoyl)pivalamide]	10 to 100	10 to 100	< 10	10 to 100	10 to 100
Cc1cc(NC(=O)NC(=O)C2CCOCC2)nc(C)c1Oc1ccnc(-c2cnn(C)c2)c1 [Example 117, N-((4,6-dimethyl-5-((2-(1-methyl-1H-pyrazol-4-yl)pyridin-4-yl)oxy)pyridin-2-yl)carbamoyl)tetrahydro-2H-pyran-4-carboxamide]	10 to 100	10 to 100	< 10	10 to 100	100 to 1000
Cc1nc(NC(=O)NC(=O)C(C)(C)C)ccc1Oc1ccnc(-c2ccc(N3CCN(C)CC3)cc2)c1 [Example 118, N-((6-methyl-5-((2-(4-(4-methylpiperazin-1-yl)phenyl)pyridin-4-yl)oxy)pyridin-2-yl)carbamoyl)pivalamide]	10 to 100	10 to 100	< 10	10 to 100	100 to 1000
Cc1cn(-c2cc(Oc3ccc(NC(=O)NC(=O)C(C)C)nc3C)ccn2)cn1 [Example 134, N-((6-methyl-5-((2-(4-methyl-1H-imidazol-1-yl)pyridin-4-yl)oxy)pyridin-2-yl)carbamoyl)isobutyramide]	10 to 100	100 to 1000	10 to 100	> 1000	> 1000
Cc1cn(-c2cc(Oc3ccc(NC(=O)NC(=O)C4CCOC4)nc3C)ccn2)cn1 (stereo not shown) [Example 136, N-((6-methyl-5-((2-(4-methyl-1H-imidazol-1-yl)pyridin-4-yl)oxy)pyridin-2-yl)carbamoyl)tetrahydrofuran-3-carboxamide]	100 to 1000	100 to 1000	100 to 1000	> 1000	> 1000
CCC(=O)NC(=O)Nc1ccc(Oc2ccnc(-c3cn(C)cn3)c2)cn1 [Example 138, N-((5-((2-(1-methyl-1H-imidazol-4-yl)pyridin-4-yl)oxy)pyridin-2-yl)carbamoyl)propionamide]	10 to 100	100 to 1000	100 to 1000	> 1000	> 1000
COC(C)(C)C(=O)NC(=O)Nc1ccc(Oc2ccnc(-c3cnc(C)n3C)c2)cn1 [Example 139, N-((5-((2-(1,2-dimethyl-1H-imidazol-5-yl)pyridin-4-yl)oxy)pyridin-2-yl)carbamoyl)-2-methoxy-2-methylpropanamide]	10 to 100	100 to 1000	100 to 1000	> 1000	> 1000
CCc1nc(NC(=O)NC(=O)C2(OC)CC2)ccc1Oc1ccnc(-c2cnn(C)c2)c1 [Example 141, N-((6-ethyl-5-((2-(1-methyl-1H-pyrazol-4-yl)pyridin-4-yl)oxy)pyridin-2-yl)carbamoyl)-1-methoxycyclopropanecarboxamide]	10 to 100	100 to 1000	10 to 100	> 1000	> 1000
Cc1cn(-c2cc(Oc3cnc(NC(=O)NC(=O)C(C)(C)C)cc3C)ccn2)cn1 [Example 148, N-((4-methyl-5-((2-(4-methyl-1H-imidazol-1-yl)pyridin-4-yl)oxy)pyridin-2-yl)carbamoyl)pivalamide]	10 to 100	< 10	< 10	10 to 100	> 1000
COC1(C(=O)NC(=O)Nc2ccc(Oc3ccnc(-c4cnc(C)s4)c3)cn2)CCCC1 [Example 149, 1-methoxy-N-((5-((2-(2-methylthiazol-5-yl)pyridin-4-yl)oxy)pyridin-2-yl)carbamoyl)cyclopentanecarboxamide]	10 to 100	10 to 100	< 10	100 to 1000	100 to 1000
COC1(C(=O)NC(=O)Nc2ccc(Oc3ccnc(-c4cnc(C)s4)c3)cn2)CC1 [Example 155, 1-methoxy-N-((5-((2-(2-methylthiazol-5-yl)pyridin-4-yl)oxy)pyridin-2-yl)carbamoyl)cyclopropanecarboxamide]	10 to 100	10 to 100	< 10	100 to 1000	> 1000
Cc1ncc(-c2cc(Oc3ccc(NC(=O)NC(=O)C4CCOCC4)nc3)ccn2)s1 [Example 156, N-((5-((2-(2-methylthiazol-5-yl)pyridin-4-yl)oxy)pyridin-2-yl)carbamoyl)tetrahydro-2H-pyran-4-carboxamide]	10 to 100	100 to 1000	10 to 100	100 to 1000	> 1000
Cc1cn(-c2cc(Oc3ccc(NC(=O)NC(=O)C4(C)CCOCC4)nc3)ccn2)cn1 [Example 157, 4-methyl-N-((5-((2-(4-methyl-1H-imidazol-1-yl)pyridin-4-yl)oxy)pyridin-2-yl)carbamoyl)tetrahydro-2H-pyran-4-carboxamide]	10 to 100	100 to 1000	10 to 100	100 to 1000	100 to 1000
COC1(C(=O)NC(=O)Nc2cc(C)c(Oc3ccnc(-n4cnc(C)c4)c3)cn2)CCCC1 [Example 162, 1-methoxy-N-((4-methyl-5-((2-(4-methyl-1H-imidazol-1-yl)pyridin-4-yl)oxy)pyridin-2-yl)carbamoyl)cyclopentanecarboxamide]	10 to 100	< 10	< 10	10 to 100	100 to 1000
Cc1ncc(-c2cc(Oc3ccc(NC(=O)NC(=O)C4(C)CCOCC4)nc3)ccn2)o1 [Example 163, 4-methyl-N-((5-((2-(2-methyloxazol-5-yl)pyridin-4-yl)oxy)pyridin-2-yl)carbamoyl)tetrahydro-2H-pyran-4-carboxamide]	10 to 100	10 to 100	10 to 100	100 to 1000	> 1000
COC1(C(=O)NC(=O)Nc2ccc(Oc3ccnc(-c4cc(C)no4)c3)c(C)n2)CCCC1 [Example 166, 1-methoxy-N-((6-methyl-5-((2-(3-methylisoxazol-5-yl)pyridin-4-yl)oxy)pyridin-2-yl)carbamoyl)cyclopentanecarboxamide]	10 to 100	10 to 100	< 10	100 to 1000	100 to 1000
COC1(C(=O)NC(=O)Nc2ccc(Oc3ccnc(-c4ccnc(C)c4)c3)cn2)CCCC1 [Example 168, 1-methoxy-N-((5-((2′-methyl-[2,4′-bipyridin]-4-yl)oxy)pyridin-2-yl)carbamoyl)cyclopentanecarboxamide]	10 to 100	10 to 100	< 10	100 to 1000	100 to 1000
